Data from ChEMBL document CHEMBL5036333, “Cryptoyunnanones A-H, Complex Flavanones from Cryptocarya yunnanensis” (J Nat Prod, 2021).
Structures can show the parent of a compound that is named as a salt.

Assays:
Assay type in all cases: functional, cell-based
[1] = tested on: PC-3; test: Cytotoxicity against human PC-3 cells assessed as cell growth inhibition measured after 48 hrs by MTT assay; conditions: PC-3, 48 h
[2] = tested on: HCT-116; test: Cytotoxicity against human HCT-116 cells assessed as cell growth inhibition measured after 48 hrs by MTT assay; conditions: HCT-116, 48 h
[3] = tested on: MDA-MB-231; test: Cytotoxicity against human MDA-MB-231 cells assessed as cell growth inhibition measured after 48 hrs by MTT assay; conditions: MDA-MB-231, 48 h
[4] = tested on: A549; test: Cytotoxicity against human A549 cells assessed as cell growth inhibition measured after 48 hrs by MTT assay; conditions: A549, 48 h

SMILES | IC50 [1] | IC50 [2] | IC50 [3] | IC50 [4]
O=C(O)CCC[C@@H]1C[C@@H]2C[C@@](/C=C/c3ccccc3)(Oc3cc(O)c4c(c32)O[C@H](c2ccccc2)CC4=O)O1 | > 10 µM | > 10 µM | > 10 µM | > 10 µM
O=C(O)CCC[C@@H]1C[C@@H]2C[C@@](/C=C/c3ccccc3)(Oc3cc(O)c4c(c32)O[C@@H](c2ccccc2)CC4=O)O1 | > 10 µM | > 10 µM | > 10 µM | > 10 µM
O=C1C=CC[C@H](C[C@@H]2C[C@@H]3C[C@@](/C=C/c4ccccc4)(Oc4cc(O)c5c(c43)O[C@@H](c3ccccc3)CC5=O)O2)O1 | 7.6 µM | 9 µM | 9.1 µM | > 10 µM
O=C1C=CC[C@H](C[C@@H]2C[C@@H]3C[C@@](/C=C/c4ccccc4)(Oc4cc(O)c5c(c43)O[C@H](c3ccccc3)CC5=O)O2)O1 | 7.8 µM | 8.1 µM | 9.1 µM | > 10 µM
O=C1C=CC[C@H](C[C@@H]2C[C@@H]3C[C@@](CCc4ccccc4)(Oc4cc(O)c5c(c43)O[C@H](c3ccccc3)CC5=O)O2)O1 | 7.2 µM | 6.4 µM | 8.6 µM | > 10 µM
O=C1C=CC[C@H](C[C@@H]2C[C@@H]3C[C@@](CCc4ccccc4)(Oc4cc(O)c5c(c43)O[C@@H](c3ccccc3)CC5=O)O2)O1 | 7.2 µM | 6.9 µM | 8.5 µM | > 10 µM
COC(=O)CCC[C@@H]1C[C@@H]2C[C@@](/C=C/c3ccccc3)(Oc3cc(O)c4c(c32)O[C@H](c2ccccc2)CC4=O)O1 | > 10 µM | > 10 µM | > 10 µM | > 10 µM
COC(=O)CCC[C@@H]1C[C@@H]2C[C@@](/C=C/c3ccccc3)(Oc3cc(O)c4c(c32)O[C@@H](c2ccccc2)CC4=O)O1 | > 10 µM | > 10 µM | > 10 µM | > 10 µM
COc1cccc2c1C(=O)c1c(O)c3c(c(O)c1C2=O)C[C@@](O)(C(=O)CO)C[C@@H]3O[C@H]1C[C@H](N)[C@H](O)[C@H](C)O1 [DOXORUBICIN HYDROCHLORIDE] | 0.2 µM | – | 0.2 µM | –
